Measured values taken from ChEMBL document CHEMBL1201862, “PubChem BioAssay data set” (2004).
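A five-concentration, 48-hour dose response in 96-well plates underlies each endpoint, interpolated linearly between surrounding concentrations. Abbreviation: GI50, concentration required for 50% inhibition of growth.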 Activity calls are given as the source filed them. Cut-off read from the data, not from the text of the source: active = GI50 up to about 1.1 µM and inactive = higher.

Key:
Assay in all cases: inhibition of tumour cell growth, NCI panel, 48 h
[1] = tested on: HCT-116
[2] = tested on: KM-20L2
[3] = tested on: HL-60
[4] = tested on: OVCAR-8
[5] = tested on: HCC 2998
[6] = tested on: HCT-15
[7] = tested on: EKVX
[8] = tested on: U-251
[9] = tested on: SF-295
[10] = tested on: DMS-114
[11] = tested on: SR
[12] = tested on: SK-OV-3
[13] = tested on: NCI-H460
[14] = tested on: DMS-273
[15] = tested on: HOP-62
[16] = tested on: SF-539
[17] = tested on: SW-620
[18] = tested on: NCI-H522
[19] = tested on: M19-MEL
[20] = tested on: K562
[21] = tested on: RPMI-8226
[22] = tested on: UACC-257
[23] = tested on: Malme-3M
[24] = tested on: NCI-H23
[25] = tested on: SK-MEL-28
[26] = tested on: COLO 205
[27] = tested on: CCRF-CEM
[28] = tested on: 786-0
[29] = tested on: LOX IMVI
[30] = tested on: SF-268
[31] = tested on: IGROV-1
[32] = tested on: ACHN
[33] = tested on: MOLT-4
[34] = tested on: NCI-H226
[35] = tested on: SNB-19
[36] = tested on: M14
[37] = tested on: LXFL 529
[38] = tested on: XF498
[39] = tested on: OVCAR-3
[40] = tested on: KM12
[41] = tested on: TK-10
[42] = tested on: A549
[43] = tested on: HT-29
[44] = tested on: SN12C
[45] = tested on: SK-MEL-5
[46] = tested on: UO-31
[47] = tested on: CAKI-1
[48] = tested on: A498
[49] = tested on: OVCAR-5
[50] = tested on: OVCAR-4
[51] = tested on: SNB-78
[52] = tested on: UACC-62
[53] = tested on: SK-MEL-2
[54] = tested on: HOP-92

Measured: GI50

Oc1ccccc1/C=N/c1ccccc1/N=C/c1ccccc1O
79.4 µM: [6]
inactive: [1] > 100 µM | [2] > 100 µM | [3] 15 µM | [4] > 100 µM | [5] > 100 µM | [7] > 100 µM | [8] 30.9 µM | [9] 88.9 µM | [10] 8.89 µM | [11] 19.5 µM | [12] > 100 µM | [13] 62.8 µM | [14] 85.9 µM | [15] > 100 µM | [16] 71.3 µM | [17] > 100 µM | [18] 16.7 µM | [19] > 100 µM | [20] 21.5 µM | [21] 62.7 µM | [22] 38.7 µM | [23] > 100 µM | [24] 38.3 µM | [25] > 100 µM | [26] > 100 µM | [27] 8.3 µM | [28] > 100 µM | [29] > 100 µM | [30] 88.1 µM | [31] > 100 µM | [32] 30.2 µM | [33] 16.1 µM | [34] 65.6 µM | [35] 34.4 µM | [36] > 100 µM | [37] 31.7 µM | [38] 47.6 µM | [39] 36.6 µM | [40] > 100 µM | [41] > 100 µM | [42] > 100 µM | [43] > 100 µM | [44] > 100 µM | [45] 86.1 µM

COc1ccc(NC(=O)/C(Cc2cc(=O)oc3cc(O)ccc23)=N\NC(C)(C)C)c(OC)c1
inactive: [1] > 100 µM | [2] > 100 µM | [3] > 100 µM | [4] > 100 µM | [5] > 100 µM | [7] 12.6 µM | [8] > 100 µM | [9] > 100 µM | [46] > 100 µM | [11] > 100 µM | [12] > 100 µM | [13] > 100 µM | [15] > 100 µM | [16] > 100 µM | [17] > 100 µM | [18] > 100 µM | [19] > 100 µM | [47] > 100 µM | [20] > 100 µM | [21] > 100 µM | [48] 22.8 µM | [22] > 100 µM | [23] > 100 µM | [24] > 100 µM | [25] > 100 µM | [49] > 100 µM | [26] > 100 µM | [27] > 100 µM | [28] > 100 µM | [29] > 100 µM | [30] > 100 µM | [31] > 100 µM | [50] > 100 µM | [51] > 100 µM | [32] > 100 µM | [33] > 100 µM | [34] > 100 µM | [35] > 100 µM | [36] > 100 µM | [37] > 100 µM | [38] > 100 µM | [52] > 100 µM | [53] > 100 µM | [39] > 100 µM | [40] > 100 µM | [41] > 100 µM | [54] 53 µM | [42] > 100 µM | [43] > 100 µM | [44] > 100 µM | [45] > 100 µM
> 100 µM: [6]
